Experimental data taken from PubChem BioAssay (NCI).
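Following 48 hours of exposure in 96-well plates, responses at five concentrations were used to interpolate endpoints linearly. Definition used: TGI = concentration required for complete inhibition of growth.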

How the values were obtained:
Experiment in all cases: DTP human tumour cell line panel, 48 h
[1] = system: 786-0 renal
[2] = system: A549 NSCLC
[3] = system: COLO 205 colon
[4] = system: EKVX NSCLC
[5] = system: HCT-116 colon
[6] = system: HL-60(TB) leukemia
[7] = system: HS 578T breast
[8] = system: IGROV1 ovarian
[9] = system: K-562 leukemia
[10] = system: M14 melanoma
[11] = system: MDA-MB-231 breast
[12] = system: NCI-H23 lung
[13] = system: RXF 393 renal
[14] = system: UO-31 renal

SMILES | TGI [1] [µM] | TGI [2] [µM] | TGI [3] [µM] | TGI [4] [µM] | TGI [5] [µM] | TGI [6] [µM] | TGI [7] [µM] | TGI [8] [µM] | TGI [9] [µM] | TGI [10] [µM] | TGI [11] [µM] | TGI [12] [µM] | TGI [13] [µM] | TGI [14] [µM]
O=C1NC(N/N=C/c2ccccc2)=N/C1=C\c1cccs1 | 44.6 | > 100 | 19.9 | 47.3 | 36.3 | 36.7 | 9.94 | 34.4 | > 80.3 | > 100 | 38.7 | 40.7 | 40.7 | 48.7
Cc1cc(C)nc(NS(=O)(=O)c2ccc(NNC(=O)c3cccc4c(NNc5ccc(S(=O)(=O)Nc6nc(C)cc(C)n6)cc5)c5ccccc5nc34)cc2)n1 | 54.1 | 96.8 | 46.3 | 40.5 | 48.2 | 47 | 71.9 | 57.1 | 52.4 | 32.6 | 44.9 | 51.6 | 48.7 | 51.1
O=c1c[n+](-c2ccccc2)[nH]o1 | > 100 | > 100 | > 100 | > 100 | > 100 | > 100 | > 100 | > 100 | > 100 | > 100 | > 100 | > 100 | > 100 | > 100
Cc1ccc(S(=O)C[C@@]2(C(F)F)NC(=O)NC2=O)cc1 (stereo partly drawn) | > 100 | > 100 | > 100 | > 100 | > 100 | > 100 | > 100 | > 100 | > 100 | > 100 | > 100 | > 100 | > 100 | > 100
COc1cc(C2c3[nH]c4ccc(F)cc4c3C[C@H]3COC(=O)N23)cc(OC)c1O (stereo partly drawn) | 26 | 28.3 | 23.7 | 92.3 | 25.5 | 38.1 | 13 | > 100 | > 100 | 43.8 | 47.4 | 18.5 | 19.1 | 28.9
CC(C)/C(Cl)=N\OC(=O)Nc1ccc(F)c([N+](=O)[O-])c1 | 7.87 | 56 | 4.36 | 26.5 | 11.7 | 2.85 | 25.1 | 13.5 | > 100 | > 32.4 | 28.9 | 41.2 | 33 | 17.9
COc1cc(C=Nc2ccc(S(N)(=O)=O)cc2)cc(OC)c1 | > 50 | > 50 | > 50 | > 50 | > 50 | 36.8 | > 50 | > 50 | > 50 | > 50 | > 50 | > 50 | > 50 | > 50
COP(=O)(OC)C(O)/C=C(\Cl)c1ccc(Cl)cc1 (stereo not drawn) | 39.3 | > 100 | > 100 | > 100 | 36.2 | > 100 | > 100 | > 100 | > 100 | > 100 | > 100 | 50.8 | > 100 | > 100
CC1C2(C)OC(=N)C(C#N)(C(c3ccco3)O2)C1(C#N)C#N (stereo not drawn) | 49.5 | > 100 | 27.7 | > 100 | 67.1 | 48.3 | 80.8 | > 100 | > 100 | 35.9 | 39.5 | 93.6 | 51.4 | > 100
COc1ccc(-c2oc3cc(OC)c(OC)c(OC)c3c(=O)c2OC)cc1OC | > 100 | > 100 | > 100 | > 100 | > 100 | 83.4 | > 100 | > 100 | > 100 | > 100 | > 100 | > 100 | > 100 | > 100
O=C(O)CSc1nnc(CCCCCCCCc2nnc(SCC(=O)O)o2)o1 | > 100 | > 100 | > 100 | > 100 | > 100 | > 100 | > 100 | > 100 | > 100 | > 100 | > 100 | > 100 | > 100 | > 100
O=C1C=CC[C@H](/C=C/C[C@@H](O)C[C@H](O)/C=C/c2ccccc2)O1 | 29.6 | 33.5 | 20.4 | 25.2 | 17.4 | 17.7 | 60.2 | 28 | 42.3 | 27.4 | 22.2 | 23.5 | 22.1 | 25.9
